Test [1] concerns dyskerin. The test is described as follows: Immunofluorescence staining of dyskerin localisation. Type of test: cell-based, human. Conditions: SGC-7901, 2 µM, 48 h. The procedure:
SGC-7901 cells were grown on glass coverslips in a 6-well culture plate until approximately 30–40% confluent and then treated with compound 5i for 48 h. The coverslips were fixed in 4% paraformaldehyde for 15 min, followed by 0.5% Triton X-100 for 30 min at room temperature. Fixed and permeabilised cells were blocked with 3% BSA for 30 min at room temperature. Then, the cells were respectively immunolabeled with the appropriate primary and secondary antibodies. FITC-conjugated anti-rabbit IgG (ZSBIO, 1:100) for dyskerin emit green fluorescence. DAPI was used for nuclear staining.

Test [2] concerns human normal gastric mucosa cell (GES-1). The test is described as follows: Proliferative inhibition of human normal cell (MTT). Type of test: cell-based. Conditions: GES1; MTT, human normal gastric mucosa cell; read-out: GES-1 IC50. The source says: In order to determine the selective cell toxicity of selected compounds. We subsequently conducted a proliferative inhibition assay with human normal gastric mucosa cell (GES-1).

In test [3] the test system is Bcl-2/Bax. In words: Western blot, Bcl-2/Bax. Type of test: cell-based, human. Conditions: SGC-7901, 1, 2 and 4 μM, 48 h. The procedure: (§1) An equivalent volume of 5 × SDS-sample buffer was added to cell lysates and boiled for 10 min. The supernatants were subjected to electrophoresis on SDS-PAGE gels and transferred to PVDF membrane by using a Bio-Rad apparatus. Membranes were blocked for 3 h at room temperature in TBST containing 5% non-fat dried milk and probed overnight at 4 °C with antibodies. CyclinD1 (abcam, ab134175, 1:10000), CDC25A (abcam, ab156574, 1:1000), CDC25C (abcam, ab32051, 1:1000), bcl-2 (abcam, ab32124,1:1000), bax (abcam, ab32503, 1:1000), PARP (abcam, ab191217, 1:1000), γH2AX (abcam, ab81299, 1:5000), dyskerin (abcam, ab156877, 1:1000), NHP2 (abcam, ab180498, 1:1000), NOP10 (abcam, ab133726, 1:1000) antibody was performed with rabbit primary antibody. Otherwise, β-actin (ZSGB-BIO, 1:1000) detection was performed with mouse primary antibody which was served as internal controls. Protein bands of β-actin was visualised using peroxidase-labeled goat anti-mouse and others were visualised using peroxidase-labeled goat anti-rabbit secondary antibody (1:5000 dilution, 1 h, room temperature), and the protein expression signals were detected by the BeyoECL Plus (Beyotime).

Test [4] deals with NHP2. In words: Western blot, NHP2. Type of test: cell-based, human. Conditions: SGC-7901, 1, 2 and 4 μM, 48 h. The procedure: as §1
For test [5], the system named is NOP10. In words: Western blot, NOP10. Type of test: cell-based, human. Conditions: SGC-7901, 1, 2 and 4 μM, 48 h. The procedure:
as §1

In test [6] the test system is CDC25A. The test is described as follows: Western blot, CDC25A. It counts as cell-based, human. Conditions: SGC-7901, 1, 2 and 4 μM, 48 h. The procedure:
as §1

Structures are written as SMILES.

Take `COc1cc(OC)c2c(=O)c(OCCCCN3CCN(C(=O)c4ccncc4)CC3)c(-c3cc(OC)c(OC)c(OC)c3)oc2c1` [Compound 5i, 3-(4-(4-isonicotinoylpiperazin-1-yl)butoxy)-5,7-dimethoxy-2-(3,4,5-trimethoxyphenyl)-4H-chromen-4-one]: in test [1], the “cytoplasm localisation dyskerin (immunofluorescence)” value is “significantly reduced” and the “nucleus dyskerin (immunofluorescence)” value is “almost all the nucleus dyskerin was disappeared”. Moreover, the IC50 in test [2] is 3.71 ± 0.33 mM. Moreover, the “proportion of Bcl-2/Bax (western blot)” value in test [3] was “reduced”. Moreover, the “NHP2 protein level (western blot)” value in test [4] was “no significant changes”. Besides, the “NOP10 protein level (western blot)” value in test [5] is “no significant changes”. Also, the “expression of CDC25A (western blot)” value in test [6] was “significantly decrease”.

The record behind these values is publication PMC6104605, “Discovery of new chromen-4-one derivatives as telomerase inhibitors through regulating expression of dyskerin” (Journal of Enzyme Inhibition and Medicinal Chemistry, 2018).
